Experiment [1] concerns the target T1, Sodium/glucose cotransporter 2 (Homo sapiens) (UniProt P31639).
T1 sequence (whole entry): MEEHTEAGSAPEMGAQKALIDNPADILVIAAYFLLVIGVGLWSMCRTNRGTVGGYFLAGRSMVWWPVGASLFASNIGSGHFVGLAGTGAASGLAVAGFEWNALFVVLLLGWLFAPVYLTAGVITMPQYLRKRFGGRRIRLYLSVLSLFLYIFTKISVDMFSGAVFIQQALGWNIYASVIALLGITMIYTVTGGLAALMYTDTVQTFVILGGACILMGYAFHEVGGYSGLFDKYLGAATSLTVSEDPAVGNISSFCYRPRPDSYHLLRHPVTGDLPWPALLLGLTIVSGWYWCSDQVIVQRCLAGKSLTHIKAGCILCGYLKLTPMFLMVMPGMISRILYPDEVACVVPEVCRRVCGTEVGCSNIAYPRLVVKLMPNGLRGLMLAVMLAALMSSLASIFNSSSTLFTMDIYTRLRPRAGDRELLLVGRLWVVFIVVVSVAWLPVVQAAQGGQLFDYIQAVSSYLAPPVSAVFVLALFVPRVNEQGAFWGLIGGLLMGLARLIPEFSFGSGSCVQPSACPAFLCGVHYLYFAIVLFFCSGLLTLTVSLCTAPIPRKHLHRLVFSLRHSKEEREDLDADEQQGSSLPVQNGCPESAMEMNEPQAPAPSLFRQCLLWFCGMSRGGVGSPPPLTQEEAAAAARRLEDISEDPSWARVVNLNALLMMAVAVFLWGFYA
As to the kind of experiment: Inhibition of full-length human SGLT2 expressed in CHO cells assessed as decrease in [14C]-methyl alpha-D-glucopyranoside uptake at 0.5 uM after 1 hr by liquid scintillation counting method. The class given is cell-based.

In experiment [2] the target is T2, Sodium/glucose cotransporter 2 (Homo sapiens, UniProt P31639).
T2 sequence (P31639 whole entry): T1 sequence (whole entry)
As to the kind of experiment: Inhibition of full-length human SGLT2 expressed in CHO cells assessed as decrease in [14C]-methyl alpha-D-glucopyranoside uptake after 1 hr by liquid scintillation counting method. The class given is cell-based.

Molecules are shown by their SMILES.

As for `OC[C@H]1O[C@H]2c3cc(Cc4cc5ccccc5s4)ccc3O[C@H]2[C@@H](O)[C@@H]1O`, the inhibition (commonly the drop in the measured response relative to a control, in per cent) in experiment [1] was 1.8%.
Turning to `Cc1ccc(Cc2cc([C@@H]3O[C@H](CO)[C@@H](O)[C@H](O)[C@H]3O)c(O)cc2Cl)cc1`, the inhibition in experiment [1] was found to be 101%. The IC50 (as a rule, the point on the concentration scale where inhibition reaches its midpoint) in experiment [2] was found to be 0.81 nM.
As for `COc1ccc(Cc2cc3c(cc2Cl)O[C@H]2[C@@H](O)[C@H](O)[C@@H](CO)O[C@@H]32)cc1`, the inhibition in experiment [1] stood at 30.7%.
On the same count and under the same terms, then `CCOc1ccc(Cc2cc([C@@H]3O[C@H](CO)[C@@H](O)[C@H](O)[C@H]3O)ccc2Cl)cc1`, with 103%; and `OC[C@H]1O[C@H]2c3cc(Cc4cc5ccccc5s4)c(Cl)cc3O[C@H]2[C@@H](O)[C@@H]1O`, with 48.7%; and `CCOc1ccc(Cc2ccc3c(c2)[C@@H]2O[C@H](CO)[C@@H](O)[C@H](O)[C@@H]2O3)cc1`, with 66.5%.
As for `CCc1ccc(Cc2cc([C@@H]3O[C@H](CO)[C@@H](O)[C@H](O)[C@H]3O)c(O)cc2Cl)cc1`, the inhibition in experiment [1] is 100%. The IC50 in experiment [2] was found to be 0.63 nM.
Regarding `CCc1ccc(Cc2cc3c(cc2Cl)O[C@H]2[C@@H](O)[C@H](O)[C@@H](CO)O[C@@H]32)cc1`, the inhibition in experiment [1] is 19.3%.
With `CCOc1ccc(Cc2ccc(O)c([C@@H]3O[C@H](CO)[C@@H](O)[C@H](O)[C@H]3O)c2)cc1`, the inhibition in experiment [1] amounted to 104%. For the same molecule, the IC50 in experiment [2] amounted to 12.2 nM.
As for `OC[C@H]1O[C@@H](c2cc(Cc3cc4ccccc4s3)c(Cl)cc2O)[C@H](O)[C@@H](O)[C@@H]1O`, the inhibition in experiment [1] is 97.5%.
Consider `COc1ccc(Cc2cc([C@@H]3O[C@H](CO)[C@@H](O)[C@H](O)[C@H]3O)c(O)cc2Cl)cc1`, for which, in experiment [1], the inhibition worked out at 106%. Also, the IC50 in experiment [2] stood at 1.08 nM.
On to `Cc1ccc(Cc2cc3c(cc2Cl)O[C@H]2[C@@H](O)[C@H](O)[C@@H](CO)O[C@@H]32)cc1`, for which, in experiment [1], the inhibition is 4.2%.
On to `CCOc1ccc(Cc2cc3c(cc2Cl)O[C@H]2[C@@H](O)[C@H](O)[C@@H](CO)O[C@@H]32)cc1`, for which the inhibition in experiment [1] turned out to be 8.6%.
`OC[C@H]1O[C@@H](c2cc(Cc3cc4ccccc4s3)ccc2O)[C@H](O)[C@@H](O)[C@@H]1O`: the inhibition in experiment [1] amounted to 103%.
For the molecule `CCOc1ccc(Cc2cc([C@@H]3O[C@H](CO)[C@@H](O)[C@H](O)[C@H]3O)c(O)cc2Cl)cc1`, the inhibition in experiment [1] amounted to 89.7%. The IC50 in experiment [2] was 1.03 nM.
